Measured values published in patent US20250250230A1, “HETEROCYCLIC COMPOUND” (TAKEDA PHARMACEUTICAL COMPANY LIMITED, priority 2022, published 2025).

These compounds were tested against T1, human orexin type 2 receptor (Homo sapiens, UniProt O43614) (assay: Measurement of orexin type 2 receptor agonist activity (calcium fluorescence, Fluo-4 AM, FDSS)). Settings: test compound 3 μM; CHO cells expressing human OX2 receptor; DMSO = 0%, orexin A (human) = 100%.
T1 construct: expressed in transfected cells
T1 sequence (O43614 1-444): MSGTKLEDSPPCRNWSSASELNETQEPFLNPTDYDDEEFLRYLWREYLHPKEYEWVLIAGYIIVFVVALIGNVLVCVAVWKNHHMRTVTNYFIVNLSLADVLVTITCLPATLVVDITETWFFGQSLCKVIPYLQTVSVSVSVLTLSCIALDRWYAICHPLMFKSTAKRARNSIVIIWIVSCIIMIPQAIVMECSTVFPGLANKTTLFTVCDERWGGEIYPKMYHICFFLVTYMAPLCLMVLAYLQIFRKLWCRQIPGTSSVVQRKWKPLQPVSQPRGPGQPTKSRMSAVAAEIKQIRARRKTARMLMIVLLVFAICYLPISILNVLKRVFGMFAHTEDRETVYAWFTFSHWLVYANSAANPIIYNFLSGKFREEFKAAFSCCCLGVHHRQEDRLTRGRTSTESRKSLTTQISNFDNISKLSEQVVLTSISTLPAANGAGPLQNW
Assay type: cell-based
Summary of the method: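 CHO-K1 cells stably expressing human OX2R were loaded with Fluo-4 AM (30 min 37 °C, 30 min RT) in HEPES-buffered HBSS with 0.1% BSA and probenecid. Calcium fluorescence was followed on FDSS for 2 min after compound addition; activity normalised to DMSO (0%) and 10 nM orexin A (100%).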
`Cc1cccc(F)c1-c1ccccc1C1CC1C(=O)N1CCC(NS(C)(=O)=O)C1` (racemic) [Example 3, a mixture of rac-N-{(3R)-1-[(1R,2R)-2-(2′-fluoro-6′-methyl[1,1′-biphenyl]-2-yl)cyclopropane-1-carbonyl]pyrrolidin-3-yl}methanesulfonamide and rac-N-{(3S)-1-[(1R,2R)-2-(2′-fluoro-6′-methyl[1,1′-biphenyl]-2-yl)cyclopropane-1-carbonyl]pyrrolidin-3-yl}methanesulfonamide] was tested, and the “OX2R agonist activity (3 μM, %)” value was 81%.
With `O=C(C1CC1c1ccccc1-c1c(F)cccc1F)N1CCC[C@H](NS(=O)(=O)CBr)C1` (mixture of isomers) [Example 213, a mixture of 1-bromo-N-{(3S)-1-[(1R,2R)-2-(2′,6′-difluoro[1,1′-biphenyl]-2-yl)cyclopropane-1-carbonyl]piperidin-3-yl}methanesulfonamide and 1-bromo-N-{(3S)-1-[(1S,2S)-2-(2′,6′-difluoro[1,1′-biphenyl]-2-yl)cyclopropane-1-carbonyl]piperidin-3-yl}methanesulfonamide] the “OX2R agonist activity (3 μM, %)” value was 100%.
In the case of `CCS(=O)(=O)NC1CCCCN(C(=O)C2CC2c2ccccc2-c2c(F)cccc2F)C1` (racemic) [Example 159, a mixture of rac-N-{(3R)-1-[(1R,2R)-2-(2′,6′-difluoro[1,1′-biphenyl]-2-yl)cyclopropane-1-carbonyl]azepan-3-yl}ethanesulfonamide and rac-N-{(3S)-1-[(1R,2R)-2-(2′,6′-difluoro[1,1′-biphenyl]-2-yl)cyclopropane-1-carbonyl]azepan-3-yl}ethanesulfonamide], the “OX2R agonist activity (3 μM, %)” value is reported as 101%.
With `Cc1ccc(C2CC2C(=O)N2CCC(NS(C)(=O)=O)C2)c(-c2ccccc2Cl)c1` (racemic) [Example 145, a mixture of rac-N-{(3R)-1-[(1R,2R)-2-(2′-chloro-5-methyl[1,1′-biphenyl]-2-yl)cyclopropane-1-carbonyl]pyrrolidin-3-yl}methanesulfonamide and rac-N-{(3S)-1-[(1R,2R)-2-(2′-chloro-5-methyl[1,1-biphenyl]-2-yl)cyclopropane-1-carbonyl]pyrrolidin-3-yl}methanesulfonamide] the “OX2R agonist activity (3 μM, %)” value was 94%.
`CS(=O)(=O)NC1CCCN(C(=O)C2CC2c2ccccc2-c2ccccc2F)CC1` (racemic) [Example 59, a mixture of rac-N-{(4R)-1-[(1R,2R)-2-(2′-fluoro[1,1′-biphenyl]-2-yl)cyclopropane-1-carbonyl]azepan-4-yl}methanesulfonamide and rac-N-{(4S)-1-[(1R,2R)-2-(2′-fluoro[1,1′-biphenyl]-2-yl)cyclopropane-1-carbonyl]azepan-4-yl}methanesulfonamide] was tested, and the “OX2R agonist activity (3 μM, %)” value was 80%.
In the case of `CS(=O)(=O)NC1CN(C(=O)C2CC2c2ccccc2-c2c(F)cccc2F)CCC1(F)F` (racemic) [Example 129, a mixture of rac-N-{(3R)-1-[(1R,2R)-2-(2′,6′-difluoro[1,1′-biphenyl]-2-yl)cyclopropane-1-carbonyl]-4,4-difluoropiperidin-3-yl}methanesulfonamide and rac-N-{(3S)-1-[(1R,2R)-2-(2′,6′-difluoro[1,1′-biphenyl]-2-yl)cyclopropane-1-carbonyl]-4,4-difluoropiperidin-3-yl}methanesulfonamide], the “OX2R agonist activity (3 μM, %)” value is reported as 101%.
`CC[C@@H]1CN(C(=O)[C@@H]2C[C@@]2(F)c2ccccc2-c2c(F)cccc2F)[C@@H]1CNS(C)(=O)=O` [Example 380, N-({(2S,3R)-1-[(1S,2S)-2-(2′,6′-difluoro[1,1′-biphenyl]-2-yl)-2-fluorocyclopropane-1-carbonyl]-3-ethylazetidin-2-yl}methyl)methanesulfonamide] was tested, and the “OX2R agonist activity (3 μM, %)” value was 92%.
With `COCC1(C(=O)N2C[C@@H](F)[C@H]2CNS(C)(=O)=O)CC1c1ccc(F)cc1-c1c(F)cccc1F` (stereo partly drawn) [Example 436, N-({(2R,3R)-3-fluoro-1-[(1R,2S)-1-(methoxymethyl)-2-(2′,5,6′-trifluoro[1,1′-biphenyl]-2-yl)cyclopropane-1-carbonyl]azetidin-2-yl}methyl)methanesulfonamide, or N-({(2R,3R)-3-fluoro-1-[(1S,2R)-1-(methoxymethyl)-2-(2′,5,6′-trifluoro[1,1′-biphenyl]-2-yl)cyclopropane-1-carbonyl]azetidin-2-yl}methyl)methanesulfonamide] the “OX2R agonist activity (3 μM, %)” value was 99%.
For `CCS(=O)(=O)N[C@H]1CCCN(C(=O)[C@@H]2C[C@H]2c2c(F)cccc2-c2c(F)cccc2F)C1` [Example 307, N-{(3S)-1-[(1R,2R)-2-(2′,3,6′-trifluoro[1,1′-biphenyl]-2-yl)cyclopropane-1-carbonyl]piperidin-3-yl}ethanesulfonamide], the “OX2R agonist activity (3 μM, %)” value was 100%.
For `CS(=O)(=O)NC1CCCCN(C(=O)C2CC2c2ccccc2-c2c(F)cccc2F)C1` (racemic) [Example 41, a mixture of rac-N-{(3R)-1-[(1R,2R)-2-(2′,6′-difluoro[1,1′-biphenyl]-2-yl)cyclopropane-1-carbonyl]azepan-3-yl}methanesulfonamide and rac-N-{(3S)-1-[(1R,2R)-2-(2′,6′-difluoro[1,1′-biphenyl]-2-yl)cyclopropane-1-carbonyl]azepan-3-yl}methanesulfonamide], the “OX2R agonist activity (3 μM, %)” value was 97%.
For `C[C@H](NS(=O)(=O)C1(C)CC1)[C@@H]1CCN1C(=O)[C@@H]1C[C@@]1(F)c1ccccc1-c1c(F)cccc1F` [Example 388, N-[(1S)-1-{(2S)-1-[(1S,2S)-2-(2′,6′-difluoro[1,1′-biphenyl]-2-yl)-2-fluorocyclopropane-1-carbonyl]azetidin-2-yl}ethyl]-1-methylcyclopropane-1-sulfonamide], the “OX2R agonist activity (3 μM, %)” value was 98%.
In the case of `O=C(C1CC1c1ccccc1-c1c(F)cccc1F)N1CCC1CNS(=O)(=O)C1CC1` (racemic) [Example 205, a mixture of rac-N-({(2R)-1-[(1R,2R)-2-(2′,6′-difluoro[1,1′-biphenyl]-2-yl)cyclopropane-1-carbonyl]azetidin-2-yl}methyl)cyclopropanesulfonamide and rac-N-({(2S)-1-[(1R,2R)-2-(2′,6′-difluoro[1,1′-biphenyl]-2-yl)cyclopropane-1-carbonyl]azetidin-2-yl}methyl)cyclopropanesulfonamide], the “OX2R agonist activity (3 μM, %)” value is reported as 78%.
With `CN(C)S(=O)(=O)NC1CCCN(C(=O)C2CC2c2ccccc2-c2c(F)cccc2F)CC1` (racemic) [Example 114, a mixture of rac-N′-{(4R)-1-[(1R,2R)-2-(2′,6′-difluoro[1,1′-biphenyl]-2-yl)cyclopropane-1-carbonyl]azepan-4-yl}-N,N-dimethylsulfuric diamide and rac-N′-{(4S)-1-[(1R,2R)-2-(2′,6′-difluoro[1,1′-biphenyl]-2-yl)cyclopropane-1-carbonyl]azepan-4-yl}-N,N-dimethylsulfuric diamide] the “OX2R agonist activity (3 μM, %)” value was 102%.
With `CS(=O)(=O)NC1CCCN(C(=O)C2CC2c2ncccc2-c2c(F)cccc2F)C1` (racemic) [Example 189, a mixture of rac-N-[(3R)-1-{(1R,2R)-2-[3-(2,6-difluorophenyl)pyridin-2-yl]cyclopropane-1-carbonyl}piperidin-3-yl]methanesulfonamide and rac-N-[(3S)-1-{(1R,2R)-2-[3-(2,6-difluorophenyl)pyridin-2-yl]cyclopropane-1-carbonyl}piperidin-3-yl]methanesulfonamide] the “OX2R agonist activity (3 μM, %)” value was 67%.
